The source of these data is publication PMC5267515, “In Vitro and Clinical Evaluations of the Drug-Drug Interaction Potential of a Metabotropic Glutamate 2/3 Receptor Agonist Prodrug with Intestinal Peptide Transporter 1” (Drug Metabolism and Disposition, 2017).

“Also recorded” adds a separate entry of the source.

The conditions of data set [1]: human, in vivo.
The next data set in a line: clinical. To be noted: human, in vivo.
The nature of data set [2]: Clinical study safety (adverse events) in healthy subjects. Format: in vivo, human. To be noted: after prodrug alone (80 mg).
The next data set deals with Pept1 knockout mice. Also on record: method as in data on file, Eli Lilly and Company. The note with it: ref data on file, Eli Lilly and Company; cited from earlier work.
The test system of the next data set is MDCK-MDR1 cells. The arrangement: method as in data on file, Eli Lilly and Company. To be noted: ref data on file, Eli Lilly and Company; cited from earlier work.
Data set [3] can be described thus: Clinical drug interaction study (H8Y-MC-HBCF), plasma and urine pharmacokinetics in healthy subjects. The note with it: for Tmax: median (min–max).
The target of data set [4] is T1, PEPT1 (Homo sapiens, UniProt P46059).
T1 sequence (P46059 1-708): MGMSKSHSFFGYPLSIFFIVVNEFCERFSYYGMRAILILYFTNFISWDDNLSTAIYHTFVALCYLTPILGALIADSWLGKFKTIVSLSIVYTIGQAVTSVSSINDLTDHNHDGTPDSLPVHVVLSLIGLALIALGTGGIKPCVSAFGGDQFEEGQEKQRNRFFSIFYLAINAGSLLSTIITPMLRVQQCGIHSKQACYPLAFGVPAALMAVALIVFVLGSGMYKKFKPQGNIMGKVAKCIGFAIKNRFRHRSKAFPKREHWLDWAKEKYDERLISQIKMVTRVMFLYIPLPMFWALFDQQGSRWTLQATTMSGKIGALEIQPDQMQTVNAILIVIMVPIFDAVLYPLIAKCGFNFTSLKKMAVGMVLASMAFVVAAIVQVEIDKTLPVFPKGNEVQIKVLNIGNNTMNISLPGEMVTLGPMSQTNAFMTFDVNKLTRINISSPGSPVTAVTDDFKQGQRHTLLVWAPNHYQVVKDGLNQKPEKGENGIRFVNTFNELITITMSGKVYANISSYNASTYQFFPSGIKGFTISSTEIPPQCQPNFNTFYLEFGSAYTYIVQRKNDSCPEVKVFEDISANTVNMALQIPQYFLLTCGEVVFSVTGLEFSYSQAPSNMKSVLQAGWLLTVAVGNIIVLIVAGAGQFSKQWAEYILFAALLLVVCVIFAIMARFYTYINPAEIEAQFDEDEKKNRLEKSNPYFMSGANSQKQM
In words: Inhibition of PEPT1-mediated [14C]Gly-Sar uptake in transfected HeLa cells. The note with it: 25 μM [14C]Gly-Sar; LY2140023 5 to 1000 μM; 3 minutes; read-out: IC50 against Gly-Sar, mean of two separate experiments. The arrangement: expressed in transfected cells; host or cells: HeLa cells (ATCC), transiently transfected with Fugene 6, pcDNA3.1 vector. Format: in vitro ADME. On the procedure:
An inhibition assay was conducted using 25 μM [^14C]Gly-Sar (0.278 μCi/ml) as a probe substrate to assess if the uptake of [^14C]Gly-Sar was inhibited by prodrug (5 to 1000 μM). The cells were incubated for 3 minutes in uptake buffer containing 25 μM [^14C]Gly-Sar and different concentrations of LY2140023 at room temperature. The uptake was corrected for background determined by parallel experiment in cells transfected with pcDNA3.1 empty vector. Cell lysing and protein quantification were performed as described above.

The target in data set [5] is T1, PEPT1. The data set can be described thus: Proton- and time-dependent transport of prodrug and active moiety in PEPT1 transfected HeLa cells. Format: in vitro ADME. Also on record: expressed in transfected cells; host or cells: HeLa cells (ATCC), transiently transfected with Fugene 6, pcDNA3.1 vector. To be noted: 30 μM, pH 6.0 or 7.5, PEPT1 vs empty vector transfected HeLa cells. On the procedure: The PEPT1 mediated [^14C]LY2140023 (30 μM) and [^14C]LY404039 (30 μM) uptake was measured in cells 24 hours post transfection. The time-dependent transport of LY2140023 and LY404039 was conducted using buffers prepared at either pH 6.0 or 7.5 as described above. The cells transfected with empty pcDNA3.1 vector were used to measure the passive diffusion of LY2140023 and LY404039. The cells were incubated for 1, 2.5, 5, 7.5, 10, and 15 minutes at room temperature and were washed, lysed, and contents quantified as described above.

Data set [6] addresses T1, PEPT1. In words: Potential for clinical DDI: estimated GI concentration (I2) versus in vitro IC50. The note with it: dose divided by 250 ml (glass of water). Also on record: expressed in transfected cells; host or cells: HeLa cells (ATCC), transiently transfected with Fugene 6, pcDNA3.1 vector. On the procedure:
These concentrations (I2) were obtained by dividing the recommended clinical dose by a volume of 250 ml (volume of glass of water) (Table 3).
Subsequently, to normalize the inhibitory potential to the clinical dose, the in vitro IC50 values were […] (the volume of a glass of water).

With `Nc1nc2c(ncn2COCCO)c(=O)[nH]1` [Acyclovir], the fe in data set [1] is reported as 0.460 (32.0). The AUC(0-inf) in “clinical” (AUC(0-∞)) and in “clinical” (AUC(0-∞) LS Geometric Mean) was 17500 ng·h/mL throughout. In addition, the Cmax in “clinical” (Cmax) and in the data set “clinical” (Cmax LS Geometric Mean) was 4400 ng/mL each time. The Tmax in “clinical” (tmax) came to 2.5 h.

With `CSCC[C@H](N)C(=O)N[C@@]1(C(=O)O)CS(=O)(=O)[C@H]2[C@H](C(=O)O)[C@H]21` [LY2140023, Pomaglumetad methionil], in data set [2], the “most common AEs” value is “nausea, dizziness, somnolence, and headache”. The “AUC0–∞ in Pept1 knockout mice relative to wildtype mice” value in the data set with Pept1 knockout mice is listed as 10%. In the data set with Pept1 knockout mice, the “Cmax in Pept1 knockout mice relative to wildtype mice” value is 10%. The passive permeability entry in the data set with MDCK-MDR1 cells is “approximately 1 × 10^−6 cm/s”. In the data set “clinical” (Vz/F), this molecule had a Vd/F of 166 L. Moreover, the CL/F is reported as 65.9 (31) L/hour in [3] (LY2140023 80 mg + valacyclovir 1000 mg coadministered, geometric mean (CV%)) and 60.2 (27) L/hour in data set [3] (single 80-mg dose of LY2140023 alone, geometric mean (CV%)). The molecule also had a half-life in data set [3] (human, plasma, oral, 80 mg) of 1.92 h. In addition, the AUC(0-inf) in [3] (human, plasma, oral, 80 mg, AUC(0-∞) LS Geometric Mean, LY2140023 Alone (Reference)) came out at 1350 ng·h/mL; in data set [3] (human, plasma, oral, 80 mg, AUC(0-∞), single 80-mg dose of LY2140023 alone, geometric mean (CV%)) it was 1330 ng·h/mL; in data set [3] (human, plasma, oral, AUC(0-∞) LS Geometric Mean, LY2140023 + Valacyclovir (Test)), 1220 ng·h/mL; in [3] (human, plasma, oral, AUC(0-∞), LY2140023 80 mg + valacyclovir 1000 mg coadministered, geometric mean (CV%)), 1210 ng·h/mL. In addition, the Cmax came out at 310 ng/mL in data set [3] (human, plasma, oral, 80 mg, Cmax LS Geometric Mean, LY2140023 Alone (Reference)); 307 ng/mL in data set [3] (human, plasma, oral, 80 mg, Cmax, single 80-mg dose of LY2140023 alone, geometric mean (CV%)); 275 ng/mL in data set [3] (human, plasma, oral, Cmax LS Geometric Mean, LY2140023 + Valacyclovir (Test)); 272 ng/mL in data set [3] (human, plasma, oral, Cmax, LY2140023 80 mg + valacyclovir 1000 mg coadministered, geometric mean (CV%)). The time to peak (Tmax) stood at 3 h in data set [3] (human, plasma, oral, 80 mg, single 80-mg dose of LY2140023 alone) and 3 h in [3] (human, plasma, oral, LY2140023 80 mg + valacyclovir 1000 mg coadministered). Further, the IC50 at PEPT1 [4] came out at 18 µM. In addition, the PEPT1 substrate status result at PEPT1 [5] is reported as “a PEPT1 substrate; also recorded: PEPT1-mediated, proton-dependent process”; on PEPT1 [5] (listed as LY2140023 monohydrate), “is a substrate of PEPT1”. Also, the “Estimated Intestinal Concentration” value on PEPT1 [6] was 0.873 mM.

A word on the AUC(0-inf): it is total exposure, with the tail of the curve extrapolated. One may read the Cmax as the peak of the concentration-time curve. Broadly, the Tmax is the time from dosing to the highest level. One may read the Vd/F as the apparent distribution volume after extravascular dosing. Usually half-life stands for the time in which the quantity being followed falls by half. A lower half-life goes with rapid decline. Broadly, the IC50 is the concentration needed to halve the response being measured.
